Assay [1] has as its target T1, unphosphorylated VEGF-R2Δ50 (FLVK) (Homo sapiens, UniProt P35968, DEL940-989/E990V).
T1 construct: VEGF-R2Δ50 contains residues 806–939 and 990–1171; made in house; host or cells: baculovirus/insect cell system
Briefly: VEGF-R2 coupled spectrophotometric assay, unphosphorylated VEGF-R2Δ50 (FLVK). The note with it: unphosphorylated VEGF-R2Δ50; for inhibition at 0.05 µM: 50 nM compound, read-out: FLVK (% inh @ 50 nM). Format: biochemical. The procedure, abridged:
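Ki obtained by Morrison-equation fitting of activity at varied compound levels; reaction started with 5–40 nM enzyme. Non-autophosphorylated kinase construct (insect cell-expressed) with 3 mM ATP, 20 mM poly(E4Y1), 60 mM MgCl2 plus 2 mM MnCl2, pH 7.5 HEPES; NADH loss at 340 nm via PK/LDH coupling.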

Assay [2] deals with human umbilical vein endothelial cells (HUVEC). Briefly: HUVEC+VEGF proliferation assay. Format: cell-based. The note with it: Homo sapiens, HUVEC; VEGF 6 ng/mL, 72 h, MTT. In a few lines: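 Exponentially growing passage 3–4 HUVEC were starved 24 h in F12K + 1% FBS, given compound (0.1% final DMSO) 1 h before 6 ng/mL final VEGF, then cultured 72 h. Proliferation was read as MTT dye reduction (4 h exposure), absorbance at 595 nm.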

Another assay deals with T2, PDGFRβ (Homo sapiens, UniProt P09619).
T2 construct: expressed in transfected cells; host or cells: porcine aorta endothelial (PAE)-PDGFRβ cells
T2 sequence (P09619 33-1106): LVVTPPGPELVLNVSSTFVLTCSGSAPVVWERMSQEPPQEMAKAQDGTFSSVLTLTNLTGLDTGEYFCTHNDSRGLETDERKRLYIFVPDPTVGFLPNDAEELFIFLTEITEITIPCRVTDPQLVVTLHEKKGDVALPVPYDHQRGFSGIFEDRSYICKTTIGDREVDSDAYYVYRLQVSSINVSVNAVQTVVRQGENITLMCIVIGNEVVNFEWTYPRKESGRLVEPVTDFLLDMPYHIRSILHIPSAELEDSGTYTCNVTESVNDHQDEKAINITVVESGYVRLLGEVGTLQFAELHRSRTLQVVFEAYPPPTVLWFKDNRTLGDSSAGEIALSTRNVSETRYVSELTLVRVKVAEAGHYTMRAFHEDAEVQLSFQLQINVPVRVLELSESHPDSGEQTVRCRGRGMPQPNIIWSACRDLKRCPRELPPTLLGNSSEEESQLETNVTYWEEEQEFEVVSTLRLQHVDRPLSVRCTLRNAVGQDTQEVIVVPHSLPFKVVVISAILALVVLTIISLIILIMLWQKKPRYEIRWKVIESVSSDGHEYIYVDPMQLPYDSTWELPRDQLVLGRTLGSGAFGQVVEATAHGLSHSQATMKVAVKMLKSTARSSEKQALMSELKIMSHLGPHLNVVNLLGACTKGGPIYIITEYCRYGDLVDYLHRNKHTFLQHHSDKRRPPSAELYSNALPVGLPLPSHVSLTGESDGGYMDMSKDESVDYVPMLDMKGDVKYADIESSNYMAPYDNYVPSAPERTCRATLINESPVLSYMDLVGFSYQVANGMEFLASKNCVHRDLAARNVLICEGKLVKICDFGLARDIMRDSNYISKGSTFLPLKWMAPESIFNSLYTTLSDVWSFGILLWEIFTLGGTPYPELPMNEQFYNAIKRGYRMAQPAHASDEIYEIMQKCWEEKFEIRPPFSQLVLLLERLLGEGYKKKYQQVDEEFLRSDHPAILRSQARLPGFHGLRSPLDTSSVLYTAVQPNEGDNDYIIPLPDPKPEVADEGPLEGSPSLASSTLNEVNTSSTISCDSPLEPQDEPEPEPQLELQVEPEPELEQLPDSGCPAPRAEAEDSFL
Briefly: PAE-PDGFRβ phosphorylation in PAE-PDGFRB cells assay. Format: cell-based. The note with it: PAE cells overexpressing human PDGFRβ, PDGF-BB stimulated; read-out: PAE PDGFR autophos IC50 (nM) AVG. In a few lines: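 Inhibition of PDGF-BB-induced (1 μg/mL, 8 min, with 2 mM vanadate) PDGFRβ autophosphorylation in porcine aortic endothelial cells expressing the human receptor. Cells were starved 16 h and pretreated with compound 1 h at 37 °C. Lysates were captured with anti-PDGFRβ and probed with HRP-PY20 at 450 nm; four-parameter IC50.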

The subject of another assay is Huvec. Briefly: bFGF Huvec proliferation. Format: cell-based, human. The note with it: Homo sapiens, HUVEC.

T1 sequence (P35968 with tags, fused parts or gaps DEL940-989/E990V limits assumed): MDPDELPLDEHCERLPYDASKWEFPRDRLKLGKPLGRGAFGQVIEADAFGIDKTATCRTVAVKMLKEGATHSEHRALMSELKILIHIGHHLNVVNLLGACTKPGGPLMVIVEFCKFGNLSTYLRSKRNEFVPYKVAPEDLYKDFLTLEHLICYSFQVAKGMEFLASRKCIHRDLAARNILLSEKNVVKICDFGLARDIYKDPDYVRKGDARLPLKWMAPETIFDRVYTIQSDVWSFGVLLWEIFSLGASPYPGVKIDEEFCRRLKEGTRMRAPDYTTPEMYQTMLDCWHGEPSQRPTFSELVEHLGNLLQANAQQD

For `CO[C@@H]1CCN(C(=O)c2cc3nccc(Oc4ccc5c(C(=O)NCCN6CCOCC6)c(C)oc5c4)c3s2)C1` [Example 90, 6-[2-(3-Methoxy-pyrrolidine-1-carbonyl)-thieno[3,2-b]pyridin-7-yloxy]-2-methyl-benzofuran-3-carboxylic acid (2-morpholin-4-yl-ethyl)-amide], the inhibition at 0.05 µM in assay [1] is 93%. The compound further returned a Ki in assay [1] of 0.739 nM. The results for the IC50 (in assay [2]; on PDGFRβ; with Huvec) were 2.14 nM, 33 nM and 745 nM, respectively.
In the same order, the values of `Cc1oc2cc(Oc3ccnc4ccsc34)ccc2c1C(=O)Nc1ccc(N2CCOCC2)nc1` [Example 102, 2-Methyl-6-(thieno[3,2-b]pyridin-7-yloxy)benzofuran-3-carboxylic acid (6-morpholin-4-yl-pyridin-3-yl)amide] are 96%, 0.91 nM, 0.186 nM, 49 nM and 1720 nM.
For `CNC(=O)c1c(C)oc2cc(Oc3ccnc4cc(C(=O)N5CCC[C@H]5CO)sc34)ccc12` [Example 80, 6-(2-[(S)-2-(hydroxymethyl)pyrrolidine-1-carbonyl]thieno[3,2-b]pyridin-7-yloxy)-2-methyl-benzofuran-3-carboxylic acid methylamide], in that order: 95%, 0.438 nM, 0.239 nM, 31 nM and 60 nM.
As for `Cc1c(C(=O)Nc2ccccn2)c2ccc(Oc3ccnc4cc(-c5nccn5C)sc34)cc2n1C` [Example 69, 1,2-Dimethyl-6-[2-(1-methyl-1H-imidazol-2-yl)-thieno[3,2-b]pyridin-7-yloxy]-1H-indole-3-carboxylic acid pyridin-2-ylamide], the inhibition at 0.05 µM in assay [1] stood at 95%. The compound further showed a Ki in assay [1] of 0.3 nM. Further, the IC50 worked out at 0.57 nM in assay [2], 6.52 nM at PDGFRβ and 4310 nM in the assay on Huvec.
For `Cc1c(C(=O)Nc2ccccn2)c2ccc(Oc3ccnc4cc(-c5nccs5)sc34)cc2n1C` [Example 70, 1,2-Dimethyl-6-(2-thiazol-2-yl-thieno[3,2-b]pyridin-7-yloxy)-1H-indole-3-carboxylic acid pyridin-2-ylamide], in that order: 95%, 0.43 nM, 0.537 nM, 47.1 nM and 3980 nM.
In the same order, the values of `CCCNC(=O)c1c(C)n(C)c2cc(Oc3ccnc4cc(-c5nccs5)sc34)ccc12` [Example 60, 1,2-Dimethyl-6-(2-thiazol-2-yl-thieno[3,2-b]pyridin-7-yloxy)1H-indole-3-carboxylic acid propylamide] are 81%, 2.17 nM, 1.34 nM, 38.3 nM and 1700 nM.
Consider `CNC(=O)c1c(C)n(C)c2cc(Oc3ccnc4cc(C(=O)N(C)C)sc34)ccc12` [Example 33, 7-({1,2-Dimethyl-3-[(methylamino)carbonyl]-1H-indol-6-yl}oxy)-N,N-dimethylthieno[3,2-b]pyridine-2-carboxamide], for which the inhibition at 0.05 µM in assay [1] is 61%. Further, the Ki in assay [1] amounted to 11.5 nM. The values for the IC50 (in assay [2]; on PDGFRβ; in the assay with Huvec) were 10 nM, 63 nM and 10000 nM, respectively.
For `CCc1oc2cc(Oc3ccnc4cc(-c5nccn5C)sc34)ccc2c1C(=O)NC` [Example 94, 2-Ethyl-6[2-(1-methyl-1H-imidazol-2-yl)-thieno[3,2-b]pyridin-7-yloxy]-benzofuran-3-carboxylic acid methylamide], in that order: 81%, 1.45 nM, 0.7 nM, 112 nM and 251 nM.
For `Cc1oc2cc(Oc3ccnc4cc(C(=O)N5CC[C@@H](O)C5)sc34)ccc2c1C(=O)NCC(C)C` [Example 88, 2-Methyl-6[2-(3-hydroxy-pyrrolidine-1-carbonyl)-thieno[3,2-b]pyridin-7-yloxy]-benzofuran-3-carboxylic acid isobutyl amide], in that order: 94%, 0.574 nM, 0.46 nM, 15.1 nM and 363 nM.
For `CCc1sc2cc(Oc3ccnc4cc(C(=O)N5CC[C@@H](OC)C5)sc34)ccc2c1C(=O)NC` [Example 135, 2-Ethyl-6-[(2-{[(3R)-3-methoxypyrrolidin-1-yl]carbonyl}thieno[3,2-b]pyridin-7-yl)oxy]benzo[b]thiophene-3-carboxylic acid methylamide], in that order: 87%, 1.54 nM, 1.02 nM, 212 nM and 559 nM.
Consider `CCCNC(=O)c1c(C)n(C)c2cc(Oc3ccnc4cc(C(=O)N5CCC[C@H]5CO)sc34)ccc12` [Example 58, 6-(2-[2-(S)Hydroxymethyl-pyrrolidine-1-carbonyl]thieno[3,2-b]pyridin-7-yloxy)-1,2-dimethyl-1H-indole-3-carboxylic acid propylamide], for which the inhibition at 0.05 µM in assay [1] came to 55%. Moreover, the affinity in assay [1] corresponds to a Ki of 7.59 nM. Also, the values for the IC50 (in assay [2]; on PDGFRβ; with Huvec) were 3.65 nM, 124 nM and 7830 nM, respectively.
With `CNC(=O)c1c(C)n(C)c2cc(Oc3ccnc4cc(-c5ccc(OC)cn5)sc34)ccc12` [Example 48, 6-[2-(5-Methoxy-pyridin-2-yl)-thieno[3,2-b]pyridin-7-yloxy]-1,2-dimethyl-1H-indole-3-carboxylic acid methylamide], the inhibition at 0.05 µM in assay [1] worked out at 91%. For the same compound, the IC50 in assay [2] was 0.94 nM; at PDGFRβ, 21 nM; in the assay with Huvec it was 239 nM.
Consider `Cc1oc2cc(Oc3ccnc4cc(-c5nccn5C)sc34)ccc2c1C(=O)NC(C)C` [Example 83, 2-Methyl-6-[2-(1-methyl-1H-imidazol-2-yl)-thieno[3,2-b]pyridin-7-yloxy]-benzofuran-3-carboxylic acid isopropyl amide], for which the inhibition at 0.05 µM in assay [1] turned out to be 98%. For the same compound, the Ki in assay [1] is 0.2 nM. In addition, the IC50 was 0.77 nM in assay [2], 28.8 nM at PDGFRβ and 142 nM in the assay on Huvec.
In the same order, the values of `CCc1sc2cc(Oc3ccnc4cc(C(=O)N5CCC[C@H]5COC)sc34)ccc2c1C(=O)NC` [Example 137, 2-Ethyl-6-[(2-{[(2S)-2-(methoxymethyl)pyrrolidin-1-yl]carbonyl}thieno[3,2-b]pyridin-7-yl)oxy]benzo[b]thiophene-3-carboxylic acid methylamide] are 64%, 5.1 nM, 2.1 nM, 213 nM and 294 nM.
In the same order, the values of `Cc1sc2cc(Oc3ccnc4cc(-c5nc(CO)cs5)sc34)ccc2c1C(=O)NCC1CC1` [Example 130] are 95%, 0.39 nM, 0.49 nM, 335 nM and 100 nM.

The Ki is the dissociation constant of the complex between target and ligand, obtained from inhibition or displacement. Usually IC50 stands for the concentration that inhibits the measured activity by half.

(Values after patent US7045528B2, “Benzofused heterozryl amide derivatives of thienopyridines useful as therapeutic agents, pharmaceutical compositions including the same, and methods for their use” (Agouron Pharmaceuticals, Inc., priority 2002, dated 2006).)
